Data: PubChem BioAssay (NCI)
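Five compound concentrations were applied to cells in 96-well plates for 48 hours; endpoints were derived by simple linear interpolation of the resulting dose-response curve. GI50 = concentration required for 50% inhibition of growth. The concentration for full growth arrest is given as TGI.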

How the values were obtained:
Assay in all cases: growth of human tumour cells (NCI), 48 h
KM12 colon = system: KM12 colon
SF-268 CNS = system: SF-268 CNS
SK-MEL-2 melanoma = system: SK-MEL-2 melanoma
MDA-MB-231 breast = system: MDA-MB-231 breast
786-0 renal = system: 786-0 renal
UACC-62 melanoma = system: UACC-62 melanoma
SNB-19 CNS = system: SNB-19 CNS
NCI-H522 lung = system: NCI-H522 lung
TK-10 renal = system: TK-10 renal
MALME-3M melanoma = system: MALME-3M melanoma
HOP-62 NSCLC = system: HOP-62 NSCLC
CCRF-CEM leukemia = system: CCRF-CEM leukemia
OVCAR-5 ovarian = system: OVCAR-5 ovarian
MOLT-4 leukemia = system: MOLT-4 leukemia
MDA-MB-435 = system: MDA-MB-435
SNB-75 CNS = system: SNB-75 CNS
HCT-116 colon = system: HCT-116 colon
DU-145 prostate = system: DU-145 prostate
SK-OV-3 ovarian = system: SK-OV-3 ovarian
SK-MEL-5 melanoma = system: SK-MEL-5 melanoma
K-562 leukemia = system: K-562 leukemia
NCI-H226 lung = system: NCI-H226 lung
HL-60(TB) leukemia = system: HL-60(TB) leukemia
SW-620 colon = system: SW-620 colon
UACC-257 melanoma = system: UACC-257 melanoma
IGROV1 ovarian = system: IGROV1 ovarian
HCT-15 colon = system: HCT-15 colon
OVCAR-4 ovarian = system: OVCAR-4 ovarian
OVCAR-8 ovarian = system: OVCAR-8 ovarian
LOX IMVI melanoma = system: LOX IMVI melanoma
NCI/ADR-RES ovarian = system: NCI/ADR-RES ovarian
CAKI-1 renal = system: CAKI-1 renal
RXF 393 renal = system: RXF 393 renal
NCI-H460 lung = system: NCI-H460 lung
T-47D breast = system: T-47D breast
SK-MEL-28 melanoma = system: SK-MEL-28 melanoma
SN12C renal = system: SN12C renal
SF-539 CNS = system: SF-539 CNS
U251 CNS = system: U251 CNS
HS 578T breast = system: HS 578T breast
M14 melanoma = system: M14 melanoma
EKVX NSCLC = system: EKVX NSCLC
COLO 205 colon = system: COLO 205 colon
SF-295 CNS = system: SF-295 CNS
A549 NSCLC = system: A549 NSCLC
SR leukemia = system: SR leukemia
HT29 colon = system: HT29 colon
MCF7 breast = system: MCF7 breast
ACHN renal = system: ACHN renal
OVCAR-3 ovarian = system: OVCAR-3 ovarian
UO-31 renal = system: UO-31 renal
PC-3 prostate = system: PC-3 prostate
A498 renal = system: A498 renal
HCC-2998 colon = system: HCC-2998 colon
BT-549 breast = system: BT-549 breast
RPMI-8226 leukemia = system: RPMI-8226 leukemia
NCI-H23 lung = system: NCI-H23 lung
HOP-92 NSCLC = system: HOP-92 NSCLC

`CC1=C(N2CC2)C(=O)c2ccccc2C1=O` gave a TGI (KM12 colon) of 2640 nM, a TGI (SF-268 CNS) of 5.14 µM and a TGI (SK-MEL-2 melanoma) of 4.06 µM. For the same compound, the TGI (MDA-MB-231 breast) was 32.8 µM, the TGI (786-0 renal) was 3.47 µM and the TGI (UACC-62 melanoma) was 2050 nM. It also gave a TGI (SNB-19 CNS) of 6.27 µM, a TGI (NCI-H522 lung) of 2360 nM and a TGI (TK-10 renal) of 6.48 µM. The TGI (MALME-3M melanoma) was 2.65 µM, the TGI (HOP-62 NSCLC) was 3.21 µM and the TGI (CCRF-CEM leukemia) was 15.5 µM. It also gave a TGI (OVCAR-5 ovarian) of 1690 nM, a TGI (MOLT-4 leukemia) of 16.3 µM and a TGI (MDA-MB-435) of 2840 nM. It also gave a TGI (SNB-75 CNS) of 2.32 µM, a TGI (HCT-116 colon) of 12 µM and a TGI (DU-145 prostate) of 0.276 µM. The TGI (SK-OV-3 ovarian) was > 100 µM, the TGI (SK-MEL-5 melanoma) was 405 nM and the TGI (K-562 leukemia) was 3.5 µM. The TGI (NCI-H226 lung) was 6.21 µM, the TGI (HL-60(TB) leukemia) was 17.1 µM and the TGI (SW-620 colon) was 1680 nM. The TGI (UACC-257 melanoma) was 1940 nM, the TGI (IGROV1 ovarian) was 8.58 µM and the TGI (HCT-15 colon) was 3.52 µM. The TGI (OVCAR-4 ovarian) was 7.36 µM, the TGI (OVCAR-8 ovarian) was 2.82 µM and the TGI (LOX IMVI melanoma) was 4.98 µM. The TGI (NCI/ADR-RES ovarian) was 3.14 µM, the TGI (CAKI-1 renal) was 1790 nM and the TGI (RXF 393 renal) was 2640 nM. It also gave a TGI (NCI-H460 lung) of 2390 nM, a TGI (T-47D breast) of 28.7 µM and a TGI (SK-MEL-28 melanoma) of 4.33 µM. It also gave a TGI (SN12C renal) of 2090 nM, a TGI (SF-539 CNS) of 5.91 µM and a TGI (U251 CNS) of 10.3 µM. The TGI (HS 578T breast) was 4.89 µM, the TGI (M14 melanoma) was 5.03 µM and the TGI (EKVX NSCLC) was 744 nM. It also gave a TGI (COLO 205 colon) of 2050 nM, a TGI (SF-295 CNS) of 2480 nM and a TGI (A549 NSCLC) of 2170 nM. The TGI (SR leukemia) was 279 nM, the TGI (HT29 colon) was 3.07 µM and the TGI (MCF7 breast) was 1820 nM. The TGI (ACHN renal) was 1070 nM, the TGI (OVCAR-3 ovarian) was 2890 nM and the TGI (UO-31 renal) was 10.6 µM. It also gave a TGI (PC-3 prostate) of 3.87 µM.
`Nc1c(C(=O)Nc2cccc3ccccc23)sc2nc3c(cc12)C(=O)CCC3` was tested, and the GI50 (KM12 colon) was 217 nM, the TGI (KM12 colon) was > 100000 nM and the GI50 (SF-268 CNS) was 587 nM. The TGI (SF-268 CNS) was > 65.6 µM, the GI50 (SK-MEL-2 melanoma) was 91.5 nM and the TGI (SK-MEL-2 melanoma) was 19.1 µM. The GI50 (MDA-MB-231 breast) was 379 nM, the TGI (MDA-MB-231 breast) was 6.92 µM and the GI50 (786-0 renal) was 388 nM. The TGI (786-0 renal) was 35.8 µM, the GI50 (UACC-62 melanoma) was 166 nM and the TGI (UACC-62 melanoma) was > 75800 nM. The GI50 (SNB-19 CNS) was 603 nM, the TGI (SNB-19 CNS) was > 81 µM and the GI50 (NCI-H522 lung) was 57 nM. The TGI (NCI-H522 lung) was 1020 nM, the GI50 (TK-10 renal) was 12.9 µM and the TGI (TK-10 renal) was > 100 µM. The GI50 (MALME-3M melanoma) was 841 nM, the TGI (MALME-3M melanoma) was 54.7 µM and the GI50 (HOP-62 NSCLC) was 315 nM. For the same compound, the TGI (HOP-62 NSCLC) was > 38.2 µM, the GI50 (CCRF-CEM leukemia) was 290 nM and the TGI (CCRF-CEM leukemia) was > 100 µM. The GI50 (OVCAR-5 ovarian) was 604 nM, the TGI (OVCAR-5 ovarian) was > 100000 nM and the GI50 (MOLT-4 leukemia) was 659 nM. For the same compound, the TGI (MOLT-4 leukemia) was > 100 µM, the GI50 (SNB-75 CNS) was 145 nM and the TGI (SNB-75 CNS) was 12.2 µM. The GI50 (HCT-116 colon) was 327 nM, the TGI (HCT-116 colon) was > 100 µM and the GI50 (DU-145 prostate) was 337 nM. For the same compound, the TGI (DU-145 prostate) was 8.71 µM, the GI50 (SK-OV-3 ovarian) was 173 nM and the TGI (SK-OV-3 ovarian) was 7.65 µM. It also gave a GI50 (A498 renal) of 46.3 nM, a TGI (A498 renal) of 1550 nM and a GI50 (HCC-2998 colon) of 300 nM. For the same compound, the GI50 (SK-MEL-5 melanoma) was 333 nM, the TGI (SK-MEL-5 melanoma) was 4440 nM and the GI50 (K-562 leukemia) was 131 nM. For the same compound, the TGI (K-562 leukemia) was > 100 µM, the GI50 (NCI-H226 lung) was 1160 nM and the TGI (NCI-H226 lung) was > 63.6 µM. For the same compound, the GI50 (HL-60(TB) leukemia) was 246 nM, the TGI (HL-60(TB) leukemia) was 0.804 µM and the GI50 (SW-620 colon) was 222 nM. For the same compound, the TGI (SW-620 colon) was > 100000 nM, the GI50 (UACC-257 melanoma) was 183 nM and the TGI (UACC-257 melanoma) was > 65800 nM. For the same compound, the GI50 (BT-549 breast) was 3.08 µM, the TGI (BT-549 breast) was > 67.1 µM and the GI50 (RPMI-8226 leukemia) was 366 nM. The TGI (RPMI-8226 leukemia) was > 38.2 µM, the GI50 (IGROV1 ovarian) was 520 nM and the TGI (IGROV1 ovarian) was > 46.7 µM. For the same compound, the GI50 (HCT-15 colon) was 262 nM, the TGI (HCT-15 colon) was > 100 µM and the GI50 (OVCAR-4 ovarian) was 2770 nM. The TGI (OVCAR-4 ovarian) was > 51.7 µM, the GI50 (OVCAR-8 ovarian) was 506 nM and the TGI (OVCAR-8 ovarian) was 32.1 µM. The GI50 (LOX IMVI melanoma) was 554 nM, the TGI (LOX IMVI melanoma) was > 100 µM and the GI50 (NCI/ADR-RES ovarian) was 225 nM. For the same compound, the GI50 (CAKI-1 renal) was 359 nM, the TGI (CAKI-1 renal) was > 100000 nM and the GI50 (NCI-H460 lung) was 165 nM. For the same compound, the GI50 (T-47D breast) was 759 nM, the TGI (T-47D breast) was > 100 µM and the GI50 (SK-MEL-28 melanoma) was 341 nM. The TGI (SK-MEL-28 melanoma) was 53.4 µM, the GI50 (SN12C renal) was 539 nM and the TGI (SN12C renal) was > 100000 nM. It also gave a GI50 (SF-539 CNS) of 152 nM, a TGI (SF-539 CNS) of 0.456 µM and a GI50 (NCI-H23 lung) of 315 nM. The TGI (NCI-H23 lung) was > 42.2 µM, the GI50 (U251 CNS) was 266 nM and the GI50 (HS 578T breast) was 226 nM. For the same compound, the TGI (HS 578T breast) was > 100 µM, the GI50 (M14 melanoma) was 240 nM and the TGI (M14 melanoma) was > 100 µM. For the same compound, the GI50 (COLO 205 colon) was 150 nM, the TGI (COLO 205 colon) was 418 nM and the GI50 (SF-295 CNS) was 77.9 nM. The GI50 (A549 NSCLC) was 172 nM, the TGI (A549 NSCLC) was > 46100 nM and the GI50 (SR leukemia) was 380 nM. The TGI (SR leukemia) was > 100000 nM, the GI50 (HT29 colon) was 265 nM and the GI50 (MCF7 breast) was 206 nM. For the same compound, the TGI (MCF7 breast) was > 100000 nM, the GI50 (HOP-92 NSCLC) was 2920 nM and the TGI (HOP-92 NSCLC) was > 100 µM. The GI50 (ACHN renal) was 341 nM, the TGI (ACHN renal) was > 58200 nM and the GI50 (OVCAR-3 ovarian) was 229 nM. The TGI (OVCAR-3 ovarian) was 696 nM, the GI50 (UO-31 renal) was 636 nM and the TGI (UO-31 renal) was > 95.6 µM. For the same compound, the GI50 (PC-3 prostate) was 295 nM and the TGI (PC-3 prostate) was > 48.5 µM.
`Cc1cc(NCCCCCCNc2cc(C)nc3ccc(N)cc23)c2cc(N)ccc2n1` was tested, and the TGI (SNB-19 CNS) was > 100 µM and the TGI (U251 CNS) was > 100 µM.
